Where “and” joins values, the source holds several entries; their conditions need not be identical. Identical values can stand only once. Inconclusive results and toxic doses are left out.

The test system of the assay is P388 leukemia ip, CD2F1 mice, survival T/C. Kind of assay: NCI In Vivo Anticancer Drug Screen. Data for tumor model P388 Leukemia (intraperitoneal) in CD2F1 (CDF1) mice. To be noted: endpoint: median survival time, higher = longer survival. In short, it runs like this:
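Mice carrying the transplanted tumor received test compound or vehicle. Survival was recorded in each group, and the value is the treated-group measurement divided by that of the vehicle-treated control group.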

Where [1] appears, read: dose: 50.0 mg/kg/injection, schedule: Q01DX005 (ip), vehicle: Klucel (hydroxypropylcellulose) (HPC).
Where [2] appears, read: dose: 25.0 mg/kg/injection, schedule: Q01DX009 (ip), vehicle: saline.

Consider `Cc1c[nH]c(=O)[nH]c1=O`, for which the T/C is 99 % of control and 107 % of control (dose: 32.0 mg/kg/injection, schedule: Q01DX009 (ip), vehicle: Klucel (hydroxypropylcellulose) (HPC)); 116 % of control (dose: 32.0 mg/kg/injection, schedule: Q01DX009 (ip), vehicle: saline with Tween-80); 99 % of control and 102 % of control (dose: 64.0 mg/kg/injection, schedule: Q01DX009 (ip), vehicle: Klucel (hydroxypropylcellulose) (HPC)); 106 % of control (dose: 64.0 mg/kg/injection, schedule: Q01DX009 (ip), vehicle: saline with Tween-80); 100 % of control and 107 % of control (dose: 128.0 mg/kg/injection, schedule: Q01DX009 (ip), vehicle: Klucel (hydroxypropylcellulose) (HPC)); 111 % of control (dose: 128.0 mg/kg/injection, schedule: Q01DX009 (ip), vehicle: saline with Tween-80). In addition, the T/C reads like this: (dose: 170.0 mg/kg/injection, schedule: Q04DX003 (ip), vehicle: saline with Tween-80) 100 % of control; (dose: 170.0 mg/kg/injection, schedule: Q## X003 (ip), vehicle: saline with Tween-80) 100 % of control; (dose: 256.0 mg/kg/injection, schedule: Q01DX009 (ip), vehicle: Klucel (hydroxypropylcellulose) (HPC)) 100 % of control and 112 % of control; (dose: 260.0 mg/kg/injection, schedule: Q04DX003 (ip), vehicle: saline with Tween-80) 94 % of control; (dose: 260.0 mg/kg/injection, schedule: Q## X003 (ip), vehicle: saline with Tween-80) 94 % of control; (dose: 390.0 mg/kg/injection, schedule: Q04DX003 (ip), vehicle: saline with Tween-80) 95 % of control and 98 % of control. For the same molecule, the T/C is, setting by setting: (dose: 390.0 mg/kg/injection, schedule: Q## X003 (ip), vehicle: saline with Tween-80) 95 % of control and 98 % of control; (dose: 512.0 mg/kg/injection, schedule: Q01DX009 (ip), vehicle: Klucel (hydroxypropylcellulose) (HPC)) 106 % of control and 93 % of control; (dose: 512.0 mg/kg/injection, schedule: Q01DX009 (ip), vehicle: saline with Tween-80) 98 % of control; (dose: 520.0 mg/kg/injection, schedule: Q04DX003 (ip), vehicle: saline with Tween-80) 95 % of control and 98 % of control; (dose: 520.0 mg/kg/injection, schedule: Q## X003 (ip), vehicle: saline with Tween-80) 95 % of control and 98 % of control.

`CCCCCCCC(=O)Nc1cc2c3c(c1)CCC(=O)N3CCC2`: the T/C is, setting by setting: under setting [1], 100 % of control; (dose: 100.0 mg/kg/injection, schedule: Q01DX005 (ip), vehicle: Klucel (hydroxypropylcellulose) (HPC)) 100 % of control; (dose: 200.0 mg/kg/injection, schedule: Q01DX005 (ip), vehicle: Klucel (hydroxypropylcellulose) (HPC)) 98 % of control.

`CC1=CC(=C(c2ccc(N)cc2)c2ccc(N)cc2)C=CC1=N`: the T/C is, setting by setting: (dose: 1.56 mg/kg/injection, schedule: Q01DX005 (ip), vehicle: water) 117 % of control; (dose: 3.12 mg/kg/injection, schedule: Q01DX005 (ip), vehicle: saline) 117 % of control; (dose: 12.5 mg/kg/injection, schedule: Q01DX005 (ip), vehicle: water) 116 % of control.

`CCOC(=O)C(=O)Nc1oc(C)c(C)c1C#N`: the T/C is 100 % of control and 107 % of control and 118 % of control (dose: 12.5 mg/kg/injection, schedule: Q01DX009 (ip), vehicle: saline + alcohol); 109 % of control and 116 % of control and 124 % of control (dose: 25.0 mg/kg/injection, schedule: Q01DX009 (ip), vehicle: saline + alcohol); 115 % of control (dose: 25.0 mg/kg/injection, schedule: Q04DX003 (ip), vehicle: saline + alcohol); 106 % of control (dose: 50.0 mg/kg/injection, schedule: Q04DX003 (ip), vehicle: saline + alcohol); 95 % of control (dose: 100.0 mg/kg/injection, schedule: Q01DX001 (ip), vehicle: saline + alcohol); 110 % of control and 93 % of control (dose: 100.0 mg/kg/injection, schedule: Q01DX009 (ip), vehicle: saline + alcohol). Besides, the T/C was 112 % of control (dose: 100.0 mg/kg/injection, schedule: Q04DX003 (ip), vehicle: saline + alcohol) and 96 % of control (dose: 200.0 mg/kg/injection, schedule: Q01DX001 (ip), vehicle: saline + alcohol).

On to `CNC1=CC(=O)c2c(c3cc(O)ccc3n2C)C1=O`, for which the T/C by setting is: (dose: 12.5 mg/kg/injection, schedule: Q01DX009 (ip), vehicle: saline) 103 % of control; under setting [2], 103 % of control; (dose: 50.0 mg/kg/injection, schedule: Q01DX009 (ip), vehicle: saline) 103 % of control and 87 % of control; (dose: 200.0 mg/kg/injection, schedule: Q01DX009 (ip), vehicle: saline) 104 % of control.

Turning to `Cc1ccc(C[N+](C)(C)C)cc1`, the T/C is, setting by setting: (dose: 12.5 mg/kg/injection, schedule: Q01DX009 (ip), vehicle: saline with Tween-80) 107 % of control; (dose: 25.0 mg/kg/injection, schedule: Q01DX009 (ip), vehicle: saline with Tween-80) 100 % of control; (dose: 50.0 mg/kg/injection, schedule: Q01DX009 (ip), vehicle: saline with Tween-80) 100 % of control and 106 % of control.

For the molecule `C/C=C1\C(=O)OC23C=CC4C(C(=O)OC)C(O)OC(OC12)C43` (stereo not given), the T/C (dose: 0.12 mg/kg/injection, schedule: Q01DX009 (ip), vehicle: saline) was 89 % of control; the T/C (dose: 0.25 mg/kg/injection, schedule: Q01DX009 (ip), vehicle: Klucel (hydroxypropylcellulose) (HPC)) is 100 % of control; the T/C (dose: 0.25 mg/kg/injection, schedule: Q01DX009 (ip), vehicle: saline) is 104 % of control; the T/C (dose: 0.5 mg/kg/injection, schedule: Q01DX009 (ip), vehicle: Klucel (hydroxypropylcellulose) (HPC)) is 99 % of control; the T/C (dose: 0.5 mg/kg/injection, schedule: Q01DX009 (ip), vehicle: saline) was 106 % of control; the T/C (dose: 1.0 mg/kg/injection, schedule: Q01DX009 (ip), vehicle: Klucel (hydroxypropylcellulose) (HPC)) was 98 % of control. Moreover, the T/C by setting is: (dose: 1.0 mg/kg/injection, schedule: Q01DX009 (ip), vehicle: saline with Tween-80) 106 % of control; (dose: 1.0 mg/kg/injection, schedule: Q01DX009 (ip), vehicle: saline) 101 % of control; (dose: 2.0 mg/kg/injection, schedule: Q01DX009 (ip), vehicle: Klucel (hydroxypropylcellulose) (HPC)) 98 % of control; (dose: 2.0 mg/kg/injection, schedule: Q01DX009 (ip), vehicle: saline with Tween-80) 110 % of control; (dose: 4.0 mg/kg/injection, schedule: Q01DX009 (ip), vehicle: saline with Tween-80) 107 % of control.

As to `CCCn1cc2c3c(cccc31)[C@H]1C[C@@H](C)CN(C)[C@@H]1C2`, the T/C (dose: 3.12 mg/kg/injection, schedule: Q01DX005 (ip), vehicle: saline with Tween-80) is 102 % of control and 107 % of control; the T/C (dose: 6.25 mg/kg/injection, schedule: Q01DX005 (ip), vehicle: saline with Tween-80) is 100 % of control and 105 % of control and 107 % of control; the T/C (dose: 12.5 mg/kg/injection, schedule: Q01DX005 (ip), vehicle: saline with Tween-80) was 102 % of control and 92 % of control and 93 % of control; the T/C (dose: 25.0 mg/kg/injection, schedule: Q01DX005 (ip), vehicle: saline with Tween-80) is 98 % of control and 101 % of control; the T/C (dose: 50.0 mg/kg/injection, schedule: Q01DX005 (ip), vehicle: saline with Tween-80) is 101 % of control; the T/C (dose: 100.0 mg/kg/injection, schedule: Q01DX005 (ip), vehicle: saline with Tween-80) is 104 % of control. Moreover, the T/C (dose: 200.0 mg/kg/injection, schedule: Q01DX005 (ip), vehicle: saline with Tween-80) was 98 % of control.

Regarding `COc1cc(N(C)C)c(OC)cc1/C=C\c1ccnc2ccccc12`, the T/C (dose: 100.0 mg/kg/injection, schedule: Q04DX003 (ip), vehicle: saline with Tween-80) is 111 % of control.

In the case of `CN(C)CCSc1c2ccccc2nc2ccccc12`, the T/C runs as follows: (dose: 12.5 mg/kg/injection, schedule: Q01DX005 (ip), vehicle: Klucel (hydroxypropylcellulose) (HPC)) 110 % of control; (dose: 25.0 mg/kg/injection, schedule: Q01DX005 (ip), vehicle: Klucel (hydroxypropylcellulose) (HPC)) 110 % of control and 119 % of control; under setting [1], 100 % of control (2×) and 101 % of control.

As to `Cc1ccc(O)c(O)c1`, the T/C under setting [2] was 101 % of control.

As for `CN1C(=O)C2C(C1=O)[C@H]1c3ccccc3C=CN1[C@@H]2C(=O)c1ccccc1` (stereo not given in full), the T/C (dose: 60.0 mg/kg/injection, schedule: Q01DX005 (ip), vehicle: saline with Tween-80) is 93 % of control; the T/C (dose: 120.0 mg/kg/injection, schedule: Q01DX005 (ip), vehicle: saline with Tween-80) is 90 % of control; the T/C (dose: 240.0 mg/kg/injection, schedule: Q01DX005 (ip), vehicle: saline with Tween-80) is 90 % of control.

Consider `CCOCN(COCC)c1ccc(Cl)cc1`, for which the T/C (dose: 200.0 mg/kg/injection, schedule: Q01DX009 (ip), vehicle: saline with Tween-80) is 164 % of control.

These data come from PubChem BioAssay AID330 (DTP/NCI, 2004).
